Patent US20110173718A1, “HERBICIDE TOLERANT PLANTS” (SYNGENTA CROP PROTECTION, INC., priority 2008, published 2011)
Several values for one entry are separate records, joined by “and”; a condition that tells them apart may be missing. Identical values can stand only once.

How the values were obtained:
Format in all cases: in vivo
[1] = tested on: weeds; assay: Glasshouse weed control by HST/HPPD (mesotrione) mixtures, pre-emergence; details: for colby: Colby synergy score; for % Damage at 14 DAA, 1 g ai ha^−1 mesotrione / % Damage at 14 DAA, no-mesotrione: N = 3
[2] = tested on: Arabidopsis HST transgenic tobacco plants; assay: Glasshouse spray test, Arabidopsis HST transgenic tobacco; details: D2 line (Arabidopsis HST, segregating T1), individual plants
[3] = tested on: Chlamydomonas HST T0 tobacco lines; assay: Glasshouse spray test, Chlamydomonas HST transgenic tobacco; details: 100 g, individual T0 lines
Text: In just the same way the Chlamydomonas HST gene sequence (AM285678) is codon-optimised for tobacco and cloned behind the double Cauliflower mosaic virus 35S promoter and Tobacco mosaic virus enhancer sequences and in front of a nos gene terminator, cloned into a binary vector and transformed into tobacco to produce a population of T0 plants.

[4] = ALOMY, 16 g/ha + mesotrione 1 g ai/ha
[5] = ALOMY, 31 g/ha + mesotrione 1 g ai/ha
[6] = ALOMY, 63 g/ha + mesotrione 1 g ai/ha
[7] = ALOMY, 125 g/ha + mesotrione 1 g ai/ha
[8] = ALOMY, 250 g/ha + mesotrione 1 g ai/ha
[9] = ALOMY, 500 g/ha + mesotrione 1 g ai/ha
[10] = AMARE, 16 g/ha + mesotrione 1 g ai/ha
[11] = AMARE, 31 g/ha + mesotrione 1 g ai/ha
[12] = AMARE, 63 g/ha + mesotrione 1 g ai/ha
[13] = AMARE, 125 g/ha + mesotrione 1 g ai/ha
[14] = AMARE, 250 g/ha + mesotrione 1 g ai/ha
[15] = AMARE, 500 g/ha + mesotrione 1 g ai/ha
[16] = ECHCG, 16 g/ha + mesotrione 1 g ai/ha
[17] = ECHCG, 31 g/ha + mesotrione 1 g ai/ha
[18] = ECHCG, 63 g/ha + mesotrione 1 g ai/ha
[19] = ECHCG, 125 g/ha + mesotrione 1 g ai/ha
[20] = ECHCG, 250 g/ha + mesotrione 1 g ai/ha
[21] = ECHCG, 500 g/ha + mesotrione 1 g ai/ha
[22] = IPOHE, 16 g/ha + mesotrione 1 g ai/ha
[23] = IPOHE, 31 g/ha + mesotrione 1 g ai/ha
[24] = IPOHE, 63 g/ha + mesotrione 1 g ai/ha
[25] = IPOHE, 125 g/ha + mesotrione 1 g ai/ha
[26] = IPOHE, 250 g/ha + mesotrione 1 g ai/ha
[27] = IPOHE, 500 g/ha + mesotrione 1 g ai/ha
[28] = SETFA, 16 g/ha + mesotrione 1 g ai/ha
[29] = SETFA, 31 g/ha + mesotrione 1 g ai/ha
[30] = SETFA, 63 g/ha + mesotrione 1 g ai/ha
[31] = SETFA, 125 g/ha + mesotrione 1 g ai/ha
[32] = SETFA, 250 g/ha + mesotrione 1 g ai/ha
[33] = SETFA, 500 g/ha + mesotrione 1 g ai/ha
[34] = SOLNI, 16 g/ha + mesotrione 1 g ai/ha
[35] = SOLNI, 31 g/ha + mesotrione 1 g ai/ha
[36] = SOLNI, 63 g/ha + mesotrione 1 g ai/ha
[37] = SOLNI, 125 g/ha + mesotrione 1 g ai/ha
[38] = SOLNI, 250 g/ha + mesotrione 1 g ai/ha
[39] = SOLNI, 500 g/ha + mesotrione 1 g ai/ha

SMILES: CC(C)C(=O)Oc1c(-c2c(F)ccc(Br)c2Cl)c(=O)n(CC(F)F)c2nccnc12 [Compound 2.30]
- colby [1, 4]: 0%
- % Damage at 14 DAA, 1 g ai ha^−1 mesotrione [1, 4]: 0%
- % Damage at 14 DAA, no-mesotrione ([1]; ALOMY, 16 g/ha): 0%
- colby [1, 5]: 0%
- % Damage at 14 DAA, 1 g ai ha^−1 mesotrione [1, 5]: 0%
- % Damage at 14 DAA, no-mesotrione ([1]; ALOMY, 31 g/ha): 0%
- colby [1, 6]: 0%
- % Damage at 14 DAA, 1 g ai ha^−1 mesotrione [1, 6]: 0%
- % Damage at 14 DAA, no-mesotrione ([1]; ALOMY, 63 g/ha): 0%
- colby [1, 7]: 0%
- % Damage at 14 DAA, 1 g ai ha^−1 mesotrione [1, 7]: 0%
- % Damage at 14 DAA, no-mesotrione ([1]; ALOMY, 125 g/ha): 0%
- colby [1, 8]: −2%
- % Damage at 14 DAA, 1 g ai ha^−1 mesotrione [1, 8]: 0%
- % Damage at 14 DAA, no-mesotrione ([1]; ALOMY, 250 g/ha): 2%
- colby [1, 9]: 10%
- % Damage at 14 DAA, 1 g ai ha^−1 mesotrione [1, 9]: 20%
- % Damage at 14 DAA, no-mesotrione ([1]; ALOMY, 500 g/ha): 10%
- colby [1, 10]: −2%
- % Damage at 14 DAA, 1 g ai ha^−1 mesotrione [1, 10]: 0%
- % Damage at 14 DAA, no-mesotrione ([1]; AMARE, 16 g/ha): 0%
- colby [1, 11]: −2%
- % Damage at 14 DAA, 1 g ai ha^−1 mesotrione [1, 11]: 0%
- % Damage at 14 DAA, no-mesotrione ([1]; AMARE, 31 g/ha): 0%
- colby [1, 12]: 8%
- % Damage at 14 DAA, 1 g ai ha^−1 mesotrione [1, 12]: 10%
- % Damage at 14 DAA, no-mesotrione ([1]; AMARE, 63 g/ha): 0%
- colby [1, 13]: 29%
- % Damage at 14 DAA, 1 g ai ha^−1 mesotrione [1, 13]: 40%
- % Damage at 14 DAA, no-mesotrione ([1]; AMARE, 125 g/ha): 10%
- colby [1, 14]: 9%
- % Damage at 14 DAA, 1 g ai ha^−1 mesotrione [1, 14]: 47%
- % Damage at 14 DAA, no-mesotrione ([1]; AMARE, 250 g/ha): 37%
- colby [1, 15]: 16%
- % Damage at 14 DAA, 1 g ai ha^−1 mesotrione [1, 15]: 90%
- % Damage at 14 DAA, no-mesotrione ([1]; AMARE, 500 g/ha): 73%
- colby [1, 16]: 0%
- % Damage at 14 DAA, 1 g ai ha^−1 mesotrione [1, 16]: 0%
- % Damage at 14 DAA, no-mesotrione ([1]; ECHCG, 16 g/ha): 0%
- colby [1, 17]: 0%
- % Damage at 14 DAA, 1 g ai ha^−1 mesotrione [1, 17]: 0%
- % Damage at 14 DAA, no-mesotrione ([1]; ECHCG, 31 g/ha): 0%
- colby [1, 18]: 0%
- % Damage at 14 DAA, 1 g ai ha^−1 mesotrione [1, 18]: 0%
- % Damage at 14 DAA, no-mesotrione ([1]; ECHCG, 63 g/ha): 0%
- colby [1, 19]: −2%
- % Damage at 14 DAA, 1 g ai ha^−1 mesotrione [1, 19]: 0%
- % Damage at 14 DAA, no-mesotrione ([1]; ECHCG, 125 g/ha): 2%
- colby [1, 20]: 0%
- % Damage at 14 DAA, 1 g ai ha^−1 mesotrione [1, 20]: 5%
- % Damage at 14 DAA, no-mesotrione ([1]; ECHCG, 250 g/ha): 5%
- colby [1, 21]: 8%
- % Damage at 14 DAA, 1 g ai ha^−1 mesotrione [1, 21]: 27%
- % Damage at 14 DAA, no-mesotrione ([1]; ECHCG, 500 g/ha): 18%
- colby [1, 22]: 0%
- % Damage at 14 DAA, 1 g ai ha^−1 mesotrione [1, 22]: 0%
- % Damage at 14 DAA, no-mesotrione ([1]; IPOHE, 16 g/ha): 0%
- colby [1, 23]: 0%
- % Damage at 14 DAA, 1 g ai ha^−1 mesotrione [1, 23]: 0%
- % Damage at 14 DAA, no-mesotrione ([1]; IPOHE, 31 g/ha): 0%
- colby [1, 24]: 0%
- % Damage at 14 DAA, 1 g ai ha^−1 mesotrione [1, 24]: 0%
- % Damage at 14 DAA, no-mesotrione ([1]; IPOHE, 63 g/ha): 0%
- colby [1, 25]: 0%
- % Damage at 14 DAA, 1 g ai ha^−1 mesotrione [1, 25]: 0%
- % Damage at 14 DAA, no-mesotrione ([1]; IPOHE, 125 g/ha): 0%
- colby [1, 26]: −2%
- % Damage at 14 DAA, 1 g ai ha^−1 mesotrione [1, 26]: 0%
- % Damage at 14 DAA, no-mesotrione ([1]; IPOHE, 250 g/ha): 2%
- colby [1, 27]: 13%
- % Damage at 14 DAA, 1 g ai ha^−1 mesotrione [1, 27]: 17%
- % Damage at 14 DAA, no-mesotrione ([1]; IPOHE, 500 g/ha): 3%
- colby [1, 28]: 0%
- % Damage at 14 DAA, 1 g ai ha^−1 mesotrione [1, 28]: 0%
- % Damage at 14 DAA, no-mesotrione ([1]; SETFA, 16 g/ha): 0%
- colby [1, 29]: 0%
- % Damage at 14 DAA, 1 g ai ha^−1 mesotrione [1, 29]: 0%
- % Damage at 14 DAA, no-mesotrione ([1]; SETFA, 31 g/ha): 0%
- colby [1, 30]: 0%
- % Damage at 14 DAA, 1 g ai ha^−1 mesotrione [1, 30]: 0%
- % Damage at 14 DAA, no-mesotrione ([1]; SETFA, 63 g/ha): 0%
- colby [1, 31]: −2%
- % Damage at 14 DAA, 1 g ai ha^−1 mesotrione [1, 31]: 0%
- % Damage at 14 DAA, no-mesotrione ([1]; SETFA, 125 g/ha): 2%
- colby [1, 32]: 3%
- % Damage at 14 DAA, 1 g ai ha^−1 mesotrione [1, 32]: 7%
- % Damage at 14 DAA, no-mesotrione ([1]; SETFA, 250 g/ha): 3%
- colby [1, 33]: 10%
- % Damage at 14 DAA, 1 g ai ha^−1 mesotrione [1, 33]: 32%
- % Damage at 14 DAA, no-mesotrione ([1]; SETFA, 500 g/ha): 22%
- colby [1, 34]: −17%
- % Damage at 14 DAA, 1 g ai ha^−1 mesotrione [1, 34]: 0%
- % Damage at 14 DAA, no-mesotrione ([1]; SOLNI, 16 g/ha): 0%
- colby [1, 35]: −10%
- % Damage at 14 DAA, 1 g ai ha^−1 mesotrione [1, 35]: 7%
- % Damage at 14 DAA, no-mesotrione ([1]; SOLNI, 31 g/ha): 0%
- colby [1, 36]: −13%
- % Damage at 14 DAA, 1 g ai ha^−1 mesotrione [1, 36]: 3%
- % Damage at 14 DAA, no-mesotrione ([1]; SOLNI, 63 g/ha): 0%
- colby [1, 37]: −11%
- % Damage at 14 DAA, 1 g ai ha^−1 mesotrione [1, 37]: 8%
- % Damage at 14 DAA, no-mesotrione ([1]; SOLNI, 125 g/ha): 2%
- colby [1, 38]: 11%
- % Damage at 14 DAA, 1 g ai ha^−1 mesotrione [1, 38]: 30%
- % Damage at 14 DAA, no-mesotrione ([1]; SOLNI, 250 g/ha): 3%
- colby [1, 39]: 21%
- % Damage at 14 DAA, 1 g ai ha^−1 mesotrione [1, 39]: 75%
- % Damage at 14 DAA, no-mesotrione ([1]; SOLNI, 500 g/ha): 45%
- % damage at 7 DAT ([2]; 150 gai/ha): 65% and 40% (2×) and 50% and 55% and 60% (2×) and 90%
- % damage at 7 DAT ([2]; 300 gai/ha): 60% (2×) and 80% and 95% and 98% and 70% and 90% (2×)
- % damage at 7 DAT ([2]; 450 gai/ha): 35% (2×) and 20% and 55% (2×) and 60% and 65% and 70%
- blch (% bleaching at the meristem relative to control plants) ([3]; 17 DAT): 0% (14×) and 15% (3×) and 20% and 65% and 10% (2×) and 90% and 75%
- ht (% height reduction relative to control plants) ([3]; 17 DAT): 15% (2×) and 10% (2×) and 55% (3×) and 25% and 30% (2×) and 0% (2×) and 5% and 8% and 20% (3×) and 40% (2×) and 50% and 35% and 90% and 85%
- blch (% bleaching at the meristem relative to control plants) ([3]; 26 DAT): 0% (19×) and 25% and 85% (2×) and 90% (2×)
- ht (% height reduction relative to control plants) ([3]; 26 DAT): 30% (5×) and 20% (6×) and 70% and 10% and 80% and 35% (2×) and 90% (2×) and 50% and 25% and 75% (2×) and 95% and 60%
